This note sets out measurements from a melting point compilation (Tetko et al.; mined from patent text by program, amines drawn as free bases though some values may be those of a salt).

With `CC(C)(C)OC(=O)/C=C/c1ccc(C(=C2CCCCCCC2)c2ccc(O)cc2)cc1`, the melting point (as a rule, the temperature of the solid-liquid transition) lay within 171 to 172 °C. The figure for `C[C@@H](n1nccn1)[C@](O)(Cn1cncn1)c1ccc(F)cc1F` is 92 to 95 °C; for `O=C1C2=C(CCCC2)C(=O)N1c1ccc(Cl)c(CO)c1` it is 77 to 79 °C; for `COc1cc(NC(=O)Nc2ccccc2)cc(Cl)n1` it is 161 to 162 °C.

Turning to `C=C(CN1c2ccccc2Sc2ccc(Cl)cc21)c1ccc(C(=O)Nc2ccccc2N)cc1`, the melting point lay in the range of 126 to 128 °C. As to `Clc1csc(-c2cccnc2)n1`, the melting point lay in the range of 84 to 86 °C. For the molecule `CCn1nc(-c2c(-c3ccccc3)nn3ccc(OC)cc23)ccc1=O`, the melting point fell in the range of 148 to 149 °C. The figure for `Cc1cccc(-c2[nH]c(C(C)C)nc2-c2cccc(-c3ccc(S(=O)(=O)N(C)C)cc3)c2)n1` is 93 to 96 °C. The figure for `Cn1cnc(COc2nc3c(cc2-c2cccc(F)c2)nnn3-c2ccccc2F)n1` is 202 to 205 °C. The figure for `O=[N+]([O-])c1cccc(CN2CCOCC2)c1` is 48 to 50 °C; for `c1c[nH]c(-c2cnco2)c1` it is 57 to 58 °C. Molecule `CNC(=C[N+](=O)[O-])NCCSCc1[nH]cnc1C` came in with a melting point of 141 to 143 °C. As for `CS(=O)(=O)c1ccc(-c2oc3ccccc3c(=O)c2-c2ccc(Cl)cc2)cc1`, the figure is 145 to 147 °C; as for `CCOC(=O)CCNC(=O)N(CCCO)c1ccc(-c2ccc(C#N)cc2)cc1`, 102 to 104 °C. As for `CC(C)(C)OC(=O)NCC1CCN(CC2(C(=O)O)CCC2)CC1`, the figure is 160 °C. As for `O=C(O)CCC(c1cc(F)ccc1F)S(=O)(=O)c1ccc(Cl)cc1` (stereo not given), the figure is 157 to 158 °C; as for `Cc1cccc(/C=C/C(=O)Nc2cccc(NC(=N)c3ccccc3)c2)c1`, 179 to 180 °C; as for `CC1(C)C=Cc2c(ccc3c2C(=O)C(O)=CC3=O)O1`, 208 °C.

On to `CC(=O)c1ccc(OCC(O)COc2cccc([N+](=O)[O-])c2)cc1O` (stereo not given), for which the melting point lay within 119 to 122 °C. As for `O=C(c1ccccc1)c1ccc(-c2nc(COc3cccc(CCCn4ccnc4)c3)co2)cc1`, the figure is 97 to 98 °C; as for `Oc1cc(C(F)CBr)c2oc(-c3ccc(O)c(F)c3)nc2c1` (stereo not given), 185 to 186 °C; as for `CCOC(=O)CC[C@H](NC(=O)Oc1ccc(CCCCc2c(N)nc(N)nc2O)s1)C(=O)OCC`, 96 to 98 °C. As for `CC(C)(N)c1ccc(-c2nc(Nc3cccc(CCO)c3)ncc2Cl)cc1`, the figure is 184 to 185 °C; as for `CC(C)(C)OC(=O)C(ON)c1ccccc1` (stereo not given), 48.2 to 49.6 °C.

In turn, `C[C@H]1Cc2cccc3sc(=O)n(c23)C1` displayed a melting point of 54 to 56 °C.

Molecule `CC(C)(CCCc1cccc2cncn12)CC(=O)O` yielded a melting point of 124 to 129 °C. As for `COC(=O)N(C)c1ccc(OCc2nc3ccccc3s2)cc1`, the figure is 85 to 87 °C; as for `O=C(O)Cc1cc2c(s1)-c1ccccc1OC2C1=CCCC=C1` (stereo not given), 105 to 110 °C; as for `CCCCCc1c(C)nc(C)c(CO)c1-c1ccccc1`, 99 to 100 °C. As for `Cn1ccc(-n2ccnc2S)n1`, the figure is 126 to 128 °C; as for `CC1(C)CC(NC(=O)C(=O)NCCO)CC(C)(C)N1OC1CCCCC1`, 190 to 192 °C; as for `CCc1cn2ccccc2c1S(=O)(=O)c1ccc(OCCCBr)cc1`, 136 °C. `CCOC(=O)C(=CNC1CC1)C(=O)c1cc(F)c(N2CCC(NC(C)=O)C2)nc1Cl` (stereo not given) gave a melting point of 71 to 75 °C. The figure for `CC(=O)Nc1nc(/C=C/c2ccc([N+](=O)[O-])cc2)c(-c2ccc(S(C)(=O)=O)cc2)s1` is 294 to 295 °C.

`O=C(CNc1c(C(=O)O)[nH]c2cc(Cl)cc(Cl)c12)c1ccc([N+](=O)[O-])cc1` showed a melting point of 270 to 272 °C. Regarding `CCOc1cc(OCCCc2cn(-c3cc(C(F)(F)F)ccn3)nc2OCC)ccc1CCC(=O)OC`, the melting point was 79 to 81 °C. The figure for `COc1ccc(S(=O)(=O)N2C(=O)[C@@](c3ccccc3OC)(N3C[C@H](OC(=O)CCC(=O)O)C[C@H]3C(=O)N(C)C)c3cc(Cl)ccc32)c(OC)c1` is 225 to 228 °C. The figure for `CCSc1ncnc2c(N3CCCCC3)nc(Cl)nc12` is 110 to 111 °C.

Consider `Cc1nc2cccc(OCC(C)(C)NC(=O)c3ccncc3)c2c(N)c1C(=O)O`, for which the melting point was in the range of 195 to 198 °C. The figure for `COc1cc(CCCCC2OC(=O)NC2=O)ccc1OCc1csc(/C=C/c2ccccc2)n1` (stereo not given) is 167 to 168 °C. As for `COc1cc(-c2nc(-n3c(C)ccc3C)sc2SCC2CCCCC2)c(OC)cc1C`, the melting point was 117 to 118 °C. With `c1ccc(-c2n[nH]c3c2sc2ccccc23)cc1`, the melting point lay within 236 to 238 °C. The figure for `CC(=O)c1ccc(C(=O)NCC(=O)NCC(F)(F)F)c2ccccc12` is 169 °C; for `O=C(Nc1ccccc1)C1=C(C(F)(F)F)S(=O)(=O)CCS1(=O)=O` it is 105 to 108 °C; for `O=C(NCCCc1ccccc1)c1ccc2c(c1)C(Cl)(Cl)c1cc(C(=O)NCCCc3ccccc3)ccc1-2` it is 165 to 167 °C.

Molecule `N#Cc1ccc(NC(=O)CBr)cc1` came in with a melting point of 166 to 168 °C. The figure for `CCOc1cn(C)cc(-c2cccc(C(F)(F)F)c2)c1=S` is 153 to 155 °C; for `C=CCNc1cc(OCC=C)c(C(=O)O)cc1Cl` it is 83.5 to 86 °C; for `CCCOc1ccccc1-c1ccc(C(N)=O)c(=O)[nH]1` it is 176 to 178 °C.

The molecule `COC(=O)CC(c1ccc(OC)cc1)N1C(=O)c2ccccc2C1=O` (stereo not given) came in with a melting point of 65 to 66 °C.

`O=[N+]([O-])c1ccc(F)c(-c2cccc(CO)c2)c1` gave a melting point of 113 to 114 °C.

On to `NS(=O)(=O)c1ccc(-c2ccc(F)cc2F)cc1`, for which the melting point amounted to 143 °C. Turning to `O=C(O)c1ccc(C(Cl)=C(Cl)Cl)cn1`, the melting point fell in the range of 158 to 159 °C.

Take `COc1ccc2c(c1)CCC1C2CCC2(C)C(NC(c3ccccc3)c3ccccc3)CCC12` (stereo not given): the melting point was 127 to 129 °C. Molecule `COC(=O)C1=Cc2cc(Br)ccc2N2CCCC2C1` (stereo not given) returned a melting point of 136 to 139 °C. As for `CN(C)c1nc(N)c(-c2nc(N)no2)nc1Cl`, the melting point is 210 to 211 °C.

`CC(C)c1ccc(NC=CS(=O)(=O)F)cc1` yielded a melting point of 41 to 43 °C.

Molecule `COc1cc(N)ccc1C(=O)NC1(C)CCN(CCCOc2ccc(F)cc2)CC1` registered a melting point of 75.5 °C. The molecule `CCCCCN1C(=O)C(O)(c2ccc3c(c2)OCO3)c2cccnc21` (stereo not given) gave a melting point of 104 to 105 °C.

For `O=C(O)c1cnc(-c2nnn[nH]2)cc1-c1ccccc1`, the melting point is greater than 300 °C. The figure for `Cc1[nH]c(=S)[nH]c(=O)c1Cc1cccnc1` is 328 to 331 °C; for `Cc1oc(-c2ccccc2)nc1COc1ccc(CN(O)C(N)=O)c(Cl)c1` it is 145 to 147 °C; for `COc1nc(CO)c(CO)n1C` it is 110 to 119 °C. In turn, `CCCCCCCCCCCCCCCCCCOc1cc(OCCCP(=O)(OCC)OCC)cc(C(=O)O)c1` showed a melting point of 53 to 55 °C. The figure for `COc1ccc(-c2nc3ccccc3o2)cc1` is 99.5 to 102 °C.
